This note sets out measurements from patent US9000047B2, “Compound inhibiting activation of the enzyme Erk 1/2 to be used in the treatment of neurodegenerative illnesses” (Farmalider, S.A., priority 2010, dated 2015).

One test deals with Hippocampal neurons. Description: TUNEL assay for the detection of cellular apoptosis induced by β-amyloid peptide in hippocampal neurons. The class given is cell-based, mouse. The method, then:
In a second in vitro assay, the apoptosis in nerve cells was measured by means of the TUNEL technique described in R. Sgonc et al., Trends Genetics, 1994, 10, 41-42. Apoptosis is the function that controls the death of a biological unit in a programmed manner.
Hippocampal neurons (obtained as described in Example 1) were cultured in 24 well plates (Nunc) at a density of 100,000 cells/well.
After 7 days under culture, β-amyloid peptide 1-40 (Aβ1-40) (Amyloid βProtein (1-40) trifluoroacetate salt, Bachem) (20 μM) was added and the cells were incubated for 72 h.
In order to study the inhibitory effect of the compound of formula (I), the cells were pre-incubated for 15 minutes with said compound at a concentration of 30 μM prior to the addition of the β-amyloid peptide, Aβ1-40.
After 72 h, the cells were fixed and the apoptotic neurons were detected by means of the TUNEL technique (Sgonc, R. et al. (1994) Trends Genetics 10, 41-42) with the in situ “cell death detection” kit, POD (Roche). In said kit, fluorescein-dUTP was used to label the DNA chain cleavage, which makes it possible to directly visualise the staining of the nuclei of the apoptotic neurons in the fluorescence microscope.
Parallel to this, the neuronal nuclei were stained with a specific monoclonal antibody (mouse anti-neuronal nuclei (NeuN) monoclonal antibody, 0.5 μg/ml, Chemicon) and a secondary anti-mouse Cy3 antibody (3.75 μg/ml, Jackson Immunoresearch Laboratories).
The quantification was performed by counting the positive nuclei following the TUNEL staining in 3 random fields and expressed as the % of dead neurons with respect to the total number of neurons in each field. Each inhibitor was assayed in triplicate in 4 independent experiments.
As a negative control, cells cultured for the same period of time, without treatment with the β-amyloid peptide (measurement of baseline spontaneous apoptosis), were used. As a positive control of 100% apoptosis, treatment with DNAse (20 U/ml) was used, following the procedure indicated in the commercial kit.
The value of the positive control (treatment with DNAse) was considered to be 100 and the rest of the measurements were adjusted in relation to this value.

The subject of the next test is protein kinase Erk 1/2. The test is described as follows: ELISA assay for the detection of the tPA-induced activation of Erk 1/2 in primary hippocampal neurons. Conditions: for normalised Erk 1/2 values, Mean value (arbitrary units): phospho-Erk 1/2 vs total Erk 1/2, 15 minutes pre-incubation with inhibitor, then tPA 20 μg/ml for 1 hour, tPA alone = 1, negative control 0.61. The class given is cell-based, mouse. The text has this: The capacity to inhibit the activation of the protein kinase Erk 1/2 presented by the Compound of formula (I) has been determined by means of the ELISA (Enzyme-Linked Immunoadsorbent Assay) technique, as described in the Examples section.
In the ELISA assays, neurons from primary cultures of hippocampi isolated from mouse embryos (day 16.5 of gestation) were used, following the protocol described by Goslin and Banker (Goslin K and Banker G (1991) Culturing Nerve Cells, MIT Press, Cambridge, Mass.). This culture was used because the hippocampus is the main region affected in Alzheimer's disease and they are non-transformed cells.
10,000 cells/well were seeded in 96 well plates (Nunc) pre-treated with poly-L-Lys (SIGMA) and left under culture for 7 days.
The treatment with tPA was performed by adding it at 20 μg/ml (without changing the medium), for 1 hour. The treatment with the inhibitor, the compound of formula (I), was performed by means of a 15 minutes pre-incubation prior to the addition of tPA, as described above.
Following the treatments, the cells were fixed with methanol at a temperature of −20° C. for 5 min, and an ELISA assay was performed in order to detect the activation of Erk 1/2.
The wells were washed three times with TBST (Tris-buffered saline, 0.1% Triton® X-100) and blocked with 5% horse serum in TBST for 1 h at 37° C. They were once again washed with TBST, […] of the corresponding primary antibody (anti-phospho-Erk 1/2 Cell Signalling, catalogue number 9101, 1/500 or total Erk 1/2, Upstate catalogue number 06-182 1/1000 in 3% bovine serum albumin in TBST) were added and it was incubated overnight at 4° C.
After 4 washings with TBST, 0.45 μg/ml of the secondary alkaline-phospatase-coupled anti-rabbit antibody (DAKO, 1/800 in 3% bovine serum albumin in TBST) were added and it was kept for 1 h at 37° C.
4 washings with TBST were performed and it was developed using 4-methylumbelliferyl phosphate as the substrate (1 mg/ml in 0.2 M triethanolamine at pH 8.5) for 30 min at room temperature in the dark.
The results were quantified by means of fluorescence reading using the Cytofluor 235 fluorometer with an excitation filter of 360/40 and an emission filter of 460/40.
All the treatments were performed in sextuplicate in each experiment: 3 points for phosphorylated Erk 1/2 and 3 points for total Erk 1/2. At least 4 independent experiments were performed.
The following were used as controls: • 1) cells without treatment (negative control), • 2) cells treated with tPA and without an inhibitor (positive control), and • 3) cells incubated only with the secondary antibody and the substrate (negative control in the ELISA technique). […]
In general terms: ELISA stands for enzyme-linked immunosorbent assay.

[1] abbreviates: 15 minutes pre-incubation with inhibitor (compound of formula (I) 30 μM), then Aβ1-40 20 μM for 72 h, DNAse positive control = 100, negative control 0.4.

In the case of “Amyloid βProtein (1-40) trifluoroacetate salt [β-amyloid peptide (Aβ1-40)]”, the “apoptosis of nerve cells, Mean value (%) of dead neurons” value (from here on “apoptosis … (%) of dead neurons”) in the test with Hippocampal neurons (Aβ1-40 20 μM alone for 72 h, no inhibitor, DNAse positive control = 100) worked out at 83.8%.

Consider `C[C@]12N[C@H](Cc3ccccc31)c1ccccc12` [Dizocilpine (MK-801), dizocilpine], for which the “normalised Erk 1/2 values, Mean value (arbitrary units)” value (from here on “normalised Erk 1/2 values, Mean value”) in the test with protein kinase Erk 1/2 came to 0.73 arbitrary units.

`NCC12CCC3CC(CC3C1)C2` (centres unmarked) [Compound of formula (I)]: the “apoptosis … (%) of dead neurons” value in the test with Hippocampal neurons (setting [1]) turned out to be 2.8%. For the same compound, the “inhibition of the apoptosis induced by the β-amyloid peptide (in words)” value with Hippocampal neurons (TUNEL, neurons cultured in vitro) was “efficiently inhibited”. Moreover, the “inhibition of the activation of the protein kinase Erk 1/2 induced by tPA (in words)” value in the test on protein kinase Erk 1/2 (ELISA, hippocampal neurons) is given as “effectively inhibits”. In addition, the “normalised Erk 1/2 values, Mean value” value in the test with protein kinase Erk 1/2 stood at 0.61 arbitrary units.

With `CC12CC3CC(C)(C1)CC(N)(C3)C2` [Memantine, memantine], in the test on Hippocampal neurons (setting [1]), the “apoptosis … (%) of dead neurons” value is reported as 4%. Moreover, the “normalised Erk 1/2 values, Mean value” value in the test with protein kinase Erk 1/2 was determined as 0.75 arbitrary units.
